ChEMBL document CHEMBL4033728, “Synthesis and structure-activity relationship study of novel quinazolinone-based inhibitors of MurA” (Bioorg Med Chem Lett, 2017)
Converted amounts (≈) assume the structure as drawn.

Columns and labels:
Escherichia coli [1] = experiment: Inhibition of Escherichia coli MurA assessed as residual enzyme activity at 100 uM using UDP-GlcNAc and PEP as substrate incubated for 15 mins by Malachite green method
Escherichia coli [2] = experiment: Antibacterial activity against Escherichia coli ATCC 25922 incubated for 18 to 24 hrs by broth microdilution method; format: functional
Staphylococcus aureus [3] = experiment: Antibacterial activity against Staphylococcus aureus ATCC 29213 incubated for 18 to 24 hrs by broth microdilution method; format: functional
[4] = Inhibition of Escherichia coli MurA using UDP-GlcNAc and PEP as substrate incubated for 15 mins by Malachite green method
[5] = Inhibition of Escherichia coli MurA
Staphylococcus aureus [6] = experiment: Antibacterial activity against Staphylococcus aureus; format: functional
Escherichia coli [7] = experiment: Antibacterial activity against Escherichia coli; format: functional

Row | Compound | Activity (Escherichia coli [1]) [%] | MIC (Escherichia coli [2]) [µg/mL] | MIC (Staphylococcus aureus [3]) [µg/mL] | IC50 [4] [µM] | IC50 [5] [µM] | MIC (Staphylococcus aureus [6]) [µg/mL] | MIC (Escherichia coli [7]) [µg/mL]
1 | O=c1[nH]c(-c2ccc3ccccc3n2)nc2ccccc12 | 100 | > 128 | > 128 | – | – | – | –
2 | O=c1[nH]c(-c2ccc(CO)o2)nc2ccccc12 | 99 | > 128 | > 128 | – | – | – | –
3 | Cn1c(-c2ccco2)nc2ccccc2c1=O | – | > 128 | > 128 | 72 | – | – | –
4 | O=C(O)c1ccc(COc2cccc(-c3nc4ccccc4c(=O)[nH]3)c2)cc1 | 85 | > 128 | > 128 | – | – | – | –
5 | COC(=O)c1ccc(COc2ccc(-c3nc4ccccc4c(=O)[nH]3)cc2)cc1 | 100 | > 128 | > 128 | – | – | – | –
6 | O=c1[nH]c(-c2cccc(Cl)c2)nc2ccccc12 | 68 | > 128 | > 128 | – | – | – | –
7 | O=c1[nH]c(-c2ccc(O)cc2)nc2ccsc12 | 80 | > 128 | > 128 | – | – | – | –
8 | O=c1[nH]c(-c2cccc(Br)c2)nc2ccccc12 | 65 | > 128 | > 128 | – | – | – | –
9 | O=c1[nH]c(-c2cccc(OCc3cccc(Cl)c3)c2)nc2ccccc12 | 98 | > 128 | > 128 | – | – | – | –
10 | COC(=O)Cn1c(-c2ccco2)nc2ccccc2c1=O | 66 | > 128 | > 128 | – | – | – | –
11 | CCCCCCCOc1ccc(-c2nc3ccccc3c(=O)[nH]2)cc1 | – | > 128 | > 128 | 84 | – | – | –
12 | O=c1[nH]c(-c2ccc([N+](=O)[O-])o2)nc2ccccc12 | – | 1 (≈ 3.89 µM) | 8 (≈ 31.1 µM) | 47 | – | – | –
13 | C[C@@H]1O[C@@H]1P(=O)(O)O [FOSFOMYCIN] | – | – | – | – | 8.8 | 16 (≈ 116 µM) | 16 (≈ 116 µM)
14 | O=c1c2ccccc2nc(-c2ccco2)n1Cc1ccccc1 | 100 | > 128 | > 128 | – | – | – | –
15 | O=c1[nH]c(-c2ccc(N3CCOCC3)nc2)nc2ccccc12 | 64 | > 128 | > 128 | – | – | – | –
16 | O=c1[nH]c(-c2cccc(OCc3ccc(Cl)cc3)c2)nc2ccccc12 | – | > 128 | > 128 | 8 | – | – | –
17 | O=c1[nH]c(-c2c[nH]cn2)nc2ccccc12 | 88 | > 128 | > 128 | – | – | – | –
18 | Cc1ccc(-c2nc3ccccc3c(=O)[nH]2)o1 | – | > 128 | > 128 | 81 | – | – | –
19 | Cc1ccc(COc2ccc(-c3nc4ccccc4c(=O)[nH]3)cc2)cc1 | 97 | > 128 | > 128 | – | – | – | –
20 | O=c1[nH]c(-c2ccc(OCc3cccc(Cl)c3)cc2)nc2ccccc12 | 95 | > 128 | > 128 | – | – | – | –
21 | O=c1[nH]c(-c2ccc(Cl)cc2)nc2ccccc12 | 72 | > 128 | > 128 | – | – | – | –
22 | O=c1[nH]c(-c2cc(F)cc3c2OCOC3)nc2ccccc12 | 99 | > 128 | > 128 | – | – | – | –

Row | Compound | Activity (Escherichia coli [1]) [%] | MIC (Escherichia coli [2]) [µg/mL] | MIC (Staphylococcus aureus [3]) [µg/mL] | IC50 [4] [µM] | IC50 [5] [µM] | MIC (Staphylococcus aureus [6]) [µg/mL] | MIC (Escherichia coli [7]) [µg/mL]
23 | COc1ccc(-c2nc(O)c3ccccc3n2)cc1 | 71 | > 128 | > 128 | – | – | – | –
24 | O=c1[nH]c(-c2cccc(OCc3ccccc3)c2)nc2ccccc12 | – | > 128 | > 128 | 23 | – | – | –
25 | O=c1[nH]c(-c2ccc(F)c(F)c2)nc2ccccc12 | 67 | > 128 | > 128 | – | – | – | –
26 | N#Cc1cccc(-c2nc3ccccc3c(=O)[nH]2)c1 | 62 | > 128 | > 128 | – | – | – | –
27 | CN(C)c1ccc(-c2nc(O)c3ccccc3n2)cc1 | 97 | > 128 | > 128 | – | – | – | –
28 | O=c1[nH]c(-c2ccc([N+](=O)[O-])cc2)nc2ccccc12 | 99 | > 128 | > 128 | – | – | – | –
29 | Oc1nc(-c2cccs2)nc2ccccc12 | 83 | > 128 | > 128 | – | – | – | –
30 | O=Cc1ccc(-c2nc3ccccc3c(=O)[nH]2)cc1 | 58 | > 128 | > 128 | – | – | – | –
31 | O=C(O)c1cccc(COc2ccc(-c3nc4ccccc4c(=O)[nH]3)cc2)c1 | 85 | > 128 | > 128 | – | – | – | –
32 | O=c1[nH]c(-c2ccco2)nc2ccsc12 | – | > 128 | > 128 | 94 | – | – | –
33 | O=c1[nH]c(-c2cccc(OCc3ccc(C(F)(F)F)cc3)c2)nc2ccccc12 | 88 | > 128 | > 128 | – | – | – | –
34 | O=C(O)Cn1c(-c2ccoc2)nc2ccccc2c1=O | 74 | > 128 | > 128 | – | – | – | –
35 | O=c1[nH]c(-c2ccc(-c3ccccc3)s2)nc2ccccc12 | – | > 128 | > 128 | 17 | – | – | –
36 | O=c1[nH]c(-c2ccc(-c3cc[nH]n3)o2)nc2ccccc12 | 100 | > 128 | > 128 | – | – | – | –
37 | Oc1nc(-c2ccncc2)nc2ccccc12 | 82 | > 128 | > 128 | – | – | – | –
38 | O=c1[nH]c(-c2cn3ccsc3n2)nc2ccccc12 | 82 | > 128 | 128 (≈ 477 µM) | – | – | – | –
39 | O=c1[nH]c(-c2ccc(-c3ccccc3)cc2)nc2ccccc12 | – | > 128 | > 128 | 21 | – | – | –
40 | COC(=O)c1ccc(COc2cccc(-c3nc4ccccc4c(=O)[nH]3)c2)cc1 | – | > 128 | > 128 | 21 | – | – | –
41 | Cn1cc[n+](C(Cn2cnc3ccc(Cl)cc3c2=O)c2cc3cc(Br)ccc3o2)c1.[Cl-] (configuration not stated) | – | – | – | – | – | 16 | 128
42 | O=c1[nH]c(-c2ccc3c(c2)OCO3)nc2ccccc12 | 83 | > 128 | > 128 | – | – | – | –
43 | N#Cc1ccc(-c2nc3ccccc3c(=O)[nH]2)cc1 | 54 | > 128 | > 128 | – | – | – | –
44 | O=c1[nH]c(-c2ccc(OCc3ccccc3)cc2)nc2ccsc12 | – | ≥ 128 | ≥ 128 | 22 to 30 | – | – | –

Row | Compound | Activity (Escherichia coli [1]) [%] | MIC (Escherichia coli [2]) [µg/mL] | MIC (Staphylococcus aureus [3]) [µg/mL] | IC50 [4] [µM] | IC50 [5] [µM] | MIC (Staphylococcus aureus [6]) [µg/mL] | MIC (Escherichia coli [7]) [µg/mL]
45 | O=c1[nH]c(-c2ccco2)nc2ccccc12 | – | > 128 | > 128 | 101 | – | – | –
46 | O=c1[nH]c(-c2ccc(Br)o2)nc2ccccc12 | – | > 128 | > 128 | 56 | – | – | –
47 | O=c1[nH]c(-c2ccc(Cn3cncn3)nc2)nc2ccccc12 | 80 | > 128 | > 128 | – | – | – | –
48 | O=c1c2ccccc2nc(-c2ccco2)n1CCO | 91 | > 128 | > 128 | – | – | – | –
49 | O=c1[nH]c(-c2ccc(OCc3ccccc3)cc2)nc2ccccc12 | – | > 128 | > 128 | 36 | – | – | –
50 | CC(C)n1c(-c2ccco2)nc2ccccc2c1=O | 93 | > 128 | 32 (≈ 126 µM) | – | – | – | –
51 | O=C(O)c1ccc(-c2nc3ccccc3c(=O)[nH]2)cc1 | 86 | > 128 | > 128 | – | – | – | –
52 | CC(C)n1c(-c2ccc([N+](=O)[O-])o2)nc2ccccc2c1=O | – | 2 (≈ 6.68 µM) | 8 (≈ 26.7 µM) | 87 | – | – | –
53 | O=c1[nH]c(-c2ccc(-c3ccncc3)cc2)nc2ccccc12 | 100 | > 128 | > 128 | – | – | – | –
54 | O=c1[nH]c(-c2cccc(Br)n2)nc2ccccc12 | 91 | > 128 | > 128 | – | – | – | –
55 | Oc1nc(-c2ccc(F)cc2)nc2ccccc12 | 89 | > 128 | > 128 | – | – | – | –
56 | O=c1[nH]c(-c2ccoc2)nc2ccccc12 | 91 | > 128 | > 128 | – | – | – | –
57 | O=c1[nH]c(-c2ccc(-c3ccccc3)s2)nc2ccsc12 | – | > 128 | ≥ 128 | 22 to 30 | – | – | –
58 | O=c1[nH]c(-c2ccnc(N3CCOCC3)c2)nc2ccccc12 | 70 | > 128 | > 128 | – | – | – | –
59 | O=c1[nH]c(-c2ccc3cccc(O)c3n2)nc2ccccc12 | 84 | > 128 | > 128 | – | – | – | –
60 | O=C(O)c1ccc(COc2ccc(-c3nc4ccccc4c(=O)[nH]3)cc2)cc1 | 92 | > 128 | > 128 | – | – | – | –
61 | COc1ccc2occ(-c3nc4ccccc4c(=O)[nH]3)c(=O)c2c1 | 100 | > 128 | > 128 | – | – | – | –
62 | O=c1[nH]c(-c2cccc(OCc3ccc(F)cc3)c2)nc2ccccc12 | – | > 128 | > 128 | 19 | – | – | –
63 | O=c1[nH]c(-c2cccc(O)c2)nc2ccccc12 | 80 | > 128 | > 128 | – | – | – | –
64 | COC(=O)c1cccc(COc2ccc(-c3nc4ccccc4c(=O)[nH]3)cc2)c1 | 100 | > 128 | > 128 | – | – | – | –
65 | O=c1[nH]c(/C=C/c2ccccc2)nc2ccccc12 | – | > 128 | > 128 | 51 | – | – | –
66 | O=c1[nH]c(-c2ccc(O)cc2)nc2ccccc12 | 91 | > 128 | > 128 | – | – | – | –
